Drawing on patent US7041687B2, “Indazole compounds useful as protein kinase inhibitors” (Vertex Pharmaceuticals Incorporated, priority 2002, dated 2006), this text covers Ki for 46 compounds.

Usually Ki stands for a measure of affinity in units of concentration, obtained from inhibition or displacement.

“And” between values parts separate entries of the source, which are not always exact repeats. Equal entries are not always repeated.

Common to all, as to type: biochemical
One assay concerns the target T1, PDK-1 (Homo sapiens, UniProt O15530).
T1 sequence (O15530 1-556): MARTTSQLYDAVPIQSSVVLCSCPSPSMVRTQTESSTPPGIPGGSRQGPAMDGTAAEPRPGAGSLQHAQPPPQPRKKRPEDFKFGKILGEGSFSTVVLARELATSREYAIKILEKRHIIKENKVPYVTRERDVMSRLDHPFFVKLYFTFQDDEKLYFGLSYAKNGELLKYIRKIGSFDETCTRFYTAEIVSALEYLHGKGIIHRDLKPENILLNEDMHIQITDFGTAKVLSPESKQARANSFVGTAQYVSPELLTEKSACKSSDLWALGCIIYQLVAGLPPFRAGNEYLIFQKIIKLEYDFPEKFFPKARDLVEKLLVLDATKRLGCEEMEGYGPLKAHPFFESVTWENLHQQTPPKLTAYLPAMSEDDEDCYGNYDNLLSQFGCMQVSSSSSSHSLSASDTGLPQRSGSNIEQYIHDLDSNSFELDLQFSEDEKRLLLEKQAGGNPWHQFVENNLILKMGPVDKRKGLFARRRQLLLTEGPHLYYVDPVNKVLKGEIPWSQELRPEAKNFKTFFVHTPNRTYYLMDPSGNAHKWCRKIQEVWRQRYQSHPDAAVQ
Briefly: PDK-1 inhibition assay (radioactive-phosphate incorporation). The settings on record: 40 μM ATP, 65 μM PDKtide, 25 nM PDK-1, 30° C.

Another assay deals with AKT-3 (Homo sapiens, UniProt Q9Y243). Briefly: AKT-3 inhibition assay (standard coupled enzyme assay). The settings on record: 170 μM ATP, 200 μM peptide, 45 nM AKT, 30° C.
For a further assay, the target named is PKA (Homo sapiens, UniProt P17612). Briefly: PKA inhibition assay (standard coupled enzyme assay). Particulars: 50 μM ATP, 80 μM Kemptide, 18 nM PKA, 30° C. On the procedure: Compounds were screened for their ability to inhibit PKA using a standard coupled enzyme assay (Fox et al., Protein Sci., (1998) 7, 2249). Assays were carried out in a mixture of 100 mM HEPES 7.5, 10 mM MgCl2, 25 mM NaCl, 1 mM DTT and 3% DMSO. Final substrate concentrations in the assay were 50 μM ATP (Sigma Chemicals) and 80 μM peptide (Kemptide, American Peptide, Sunnyvale, Calif.). Assays were carried out at 30° C. and 18 nM PKA. Final concentrations of the components of the coupled enzyme system were 2.5 mM phosphoenolpyruvate, 300 μM NADH, 30 μg/ml pyruvate kinase and 10 μg/ml lactate dehydrogenase.
An assay stock buffer solution was prepared containing all of the reagents listed above, with the exception of ATP, and the test compound of interest. 55 μl of the stock solution was placed in a 96 well plate followed by addition of 2 μl of DMSO stock containing serial dilutions of the test compound (typically starting from a final concentration of 5 μM). The plate was preincubated for 10 minutes at 30° C. and the reaction initiated by addition of 5 μl of ATP (final concentration 50 μM). Initial reaction rates were determined with a Molecular Devices SpectraMax Plus plate reader over a 15 minute time course. IC50 and Ki data were calculated from non-linear regression analysis using the Prism software package (GraphPad Prism version 3.0a for Macintosh, GraphPad Software, San Diego Calif., USA).

Sequence of AKT-3 (Q9Y243 whole entry): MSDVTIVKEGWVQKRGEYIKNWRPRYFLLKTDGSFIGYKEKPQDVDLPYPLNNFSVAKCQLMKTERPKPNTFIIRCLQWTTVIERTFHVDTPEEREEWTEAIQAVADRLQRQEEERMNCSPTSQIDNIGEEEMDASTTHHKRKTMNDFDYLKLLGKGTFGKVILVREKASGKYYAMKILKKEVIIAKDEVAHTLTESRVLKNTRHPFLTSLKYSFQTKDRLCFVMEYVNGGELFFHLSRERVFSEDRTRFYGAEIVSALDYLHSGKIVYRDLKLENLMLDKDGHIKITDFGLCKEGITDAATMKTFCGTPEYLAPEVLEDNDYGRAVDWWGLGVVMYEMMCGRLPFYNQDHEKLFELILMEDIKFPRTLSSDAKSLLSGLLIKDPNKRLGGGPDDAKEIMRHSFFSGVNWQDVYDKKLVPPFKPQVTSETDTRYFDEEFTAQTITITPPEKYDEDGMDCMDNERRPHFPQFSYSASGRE
Experimental for AKT-3: Assays were carried out in a mixture of 100 mM HEPES 7.5, 10 mM MgCl2, 25 mM NaCl, 1 mM DTT and 3% DMSO. Final substrate concentrations in the assay were 170 μM ATP (Sigma Chemicals) and 200 μM peptide (RPRAATF, American Peptide, Sunnyvale, Calif.). Assays were carried out at 30° C. and 45 nM AKT. Final concentrations of the components of the coupled enzyme system were 2.5 mM phosphoenolpyruvate, 300 μM NADH, 30 μg/ML pyruvate kinase and 10 μg/ml lactate dehydrogenase.
An assay stock buffer solution was prepared containing all of the reagents listed above, with the exception of AKT, DTT, and the test compound of interest. 55 μl of the stock solution was placed in a 96 well plate followed by addition of 2 μl of 1 mM DMSO stock containing the test compound (final compound concentration 30 μM). The plate was pre-incubated for about 10 minutes at 30° C. and the reaction initiated by addition of 10 μl of enzyme (final concentration 45 nM) and 1 mM DTF. Rates of reaction were obtained using a Molecular Devices SpectraMax Plus plate reader over a 15 minute read time at 30° C.

Consider `Cc1cccc(-c2n[nH]c3ccc(NC(=O)C(CCN)c4ccc(Cl)c(Cl)c4)cc23)c1` (stereo not drawn) [Compound I-251], for which the Ki on PDK-1 and on AKT-3 was less than 1000 nM in each case.

Consider `Cc1cccn(C(CCN)C(=O)Nc2ccc3[nH]nc(C)c3c2)c1=O` (stereo not drawn) [Compound I-137], for which the Ki on PDK-1 was 1000 to 3000 nM; at AKT-3, 1000 to 10000 nM. Regarding `COc1cccc(C(CCN)C(=O)Nc2ccc3[nH]nc(C)c3c2)c1` (stereo not drawn) [Compound I-1018], the Ki at PDK-1 is 1000 to 3000 nM; at AKT-3, 1000 to 10000 nM.

As for `CC(=O)Nc1cccc(C(CCN)C(=O)Nc2ccc3[nH]ncc3c2)c1` (stereo not drawn) [Compound I-111], the Ki was greater than 3000 nM at PDK-1 and 1000 to 10000 nM on AKT-3. With `N#Cc1cccc(Nc2n[nH]c3ccc(NC(=O)[C@H](CCN)c4ccccc4)cc23)c1` [Compound I-1054], the inhibition constant (Ki) on PDK-1 was 1000 to 3000 nM and > 3000 nM; at AKT-3 it was less than 1000 nM. On to `NCC(C(=O)Nc1ccc2[nH]ncc2c1)c1ccc(Cl)cc1F` (stereo not drawn) [Compound I-258], for which the Ki at PDK-1 is greater than 3000 nM; on AKT-3 it was less than 1000 nM. Regarding `NCCC(C(=O)Nc1ccc2[nH]ncc2c1)c1cccc(OCc2ccccc2)c1` (stereo not drawn) [Compound I-114], the Ki at PDK-1 was greater than 3000 nM; on AKT-3, 1000 to 10000 nM. Consider `N#Cc1cccc(Nc2n[nH]c3ccc(NC(=O)[C@@H](CCN)c4c(F)ccc(Cl)c4F)cc23)c1` [Compound I-1048], for which the Ki is less than 1000 nM on PDK-1 and 1000 to 10000 nM at AKT-3. Consider `NCCC(C(=O)Nc1ccc2[nH]nc(NS(=O)(=O)c3ccccc3)c2c1)c1ccc(Cl)c(Cl)c1` (stereo not drawn) [Compound I-190], for which the Ki is greater than 3000 nM at PDK-1 and 10000 to 20000 nM on AKT-3. For `NCCC(C(=O)Nc1ccc2[nH]nc(-c3cccc(C(=O)O)c3)c2c1)c1ccccc1` (stereo not drawn) [Compound I-246], the inhibition constant (Ki) on PKA was less than 1000 nM.

Take `NCCC(C(=O)Nc1ccc2[nH]nc(NC(=O)COc3ccccc3)c2c1)c1ccccc1` (stereo not drawn) [Compound I-1051]: the results for the Ki at PDK-1 and on AKT-3 were greater than 3000 nM and 1000 to 10000 nM, respectively. In the case of `COC(=O)c1cccc(-c2n[nH]c3ccc(NC(=O)C(CCN)c4ccccc4)cc23)c1` (stereo not drawn) [Compound I-244], the Ki at PKA was less than 1000 nM. For the compound `Cc1cccc(Nc2n[nH]c3ccc(NC(=O)C(CCN)c4ccc(Cl)c(Cl)c4)cc23)c1` (stereo not drawn) [Compound I-212], the Ki at PDK-1 was 1000 to 3000 nM; on AKT-3 it was less than 1000 nM. For `NCC[C@@H](C(=O)Nc1ccc2[nH]nc(-c3ccccc3)c2c1)c1ccccc1` [Compound I-1052], in that order: less than 1000 nM and 1000 to 10000 nM. Compound `O=C(Nc1ccc2[nH]ncc2c1)C(CO)c1ccccc1` (stereo not drawn) [Compound I-84] yielded an inhibition constant (Ki) at PKA of 1000 to 5000 nM. `NCC[C@@H](C(=O)Nc1ccc2[nH]nc(NC(=O)c3cccs3)c2c1)c1c(F)ccc(Cl)c1F` [Compound I-1045]: the Ki on PDK-1 and at AKT-3 was less than 1000 nM each time. As for `O=C(Cc1ccc(Cl)c(Cl)c1)Nc1ccc2[nH]ncc2c1` [Compound I-16], the inhibition constant Ki on PDK-1 was greater than 3000 nM; at AKT-3, 1000 to 10000 nM. In the same order, the values of `NCCC(C(=O)Nc1ccc2[nH]nc(NC(=O)c3ccc4c(c3)OCO4)c2c1)c1ccc(Cl)c(Cl)c1` (stereo not drawn) [Compound I-171] are less than 1000 nM and less than 1000 nM. For the compound `Cc1n[nH]c2ccc(NC(=O)C(CCN)c3cccc(CC(C)C)c3)cc12` (stereo not drawn) [Compound I-142], the Ki is greater than 3000 nM at PDK-1 and 1000 to 10000 nM on AKT-3. Turning to `NCC[C@@H](C(=O)Nc1ccc2[nH]nc(NC(=O)c3cccs3)c2c1)c1ccccc1` [Compound I-1049], the Ki on PDK-1 and on AKT-3 was less than 1000 nM each time. `NCCC(C(=O)Nc1ccc2[nH]nc(NS(=O)(=O)c3cccc(Cl)c3)c2c1)c1ccc(Cl)c(Cl)c1` (stereo not drawn) [Compound I-191]: the Ki at PDK-1 was greater than 3000 nM; on AKT-3, 1000 to 10000 nM. As for `COc1ccccc1C(CCN)C(=O)Nc1ccc2[nH]ncc2c1` (stereo not drawn) [Compound I-1005], the inhibition constant (Ki) at PDK-1 was 1000 to 3000 nM; at AKT-3, less than 1000 nM.

In the case of `NCCC(C(=O)Nc1ccc2[nH]nc(NC(=O)Nc3cccc(Cl)c3)c2c1)c1ccc(Cl)c(Cl)c1` (stereo not drawn) [Compound I-173], the Ki on PDK-1 and on AKT-3 was less than 1000 nM each time.

For `Cc1cccc(C(CCN)C(=O)Nc2ccc3[nH]ncc3c2)c1` (stereo not drawn) [Compound I-112], the Ki on PDK-1 is 1000 to 3000 nM; at AKT-3 it was less than 1000 nM. For `NCC(C(=O)Nc1ccc2[nH]ncc2c1)c1cccc(Cl)c1F` (stereo not drawn) [Compound I-257], in that order: greater than 3000 nM and less than 1000 nM. On to `O=C(CCC(C(=O)O)c1ccccc1)Nc1ccc2[nH]ncc2c1` (stereo not drawn) [Compound I-1014], for which the inhibitory constant (Ki) on PDK-1 is greater than 3000 nM; on AKT-3, less than 1000 nM. As to `NCCC(C(=O)Nc1ccc2[nH]nc(Nc3cccc(F)c3)c2c1)c1ccc(Cl)c(Cl)c1` (stereo not drawn) [Compound I-213], the inhibition constant Ki was 1000 to 3000 nM on PDK-1 and less than 1000 nM on AKT-3. In the same order, the values of `NCC[C@H](C(=O)Nc1ccc2[nH]nc(NC(=O)c3cccs3)c2c1)c1c(F)ccc(Cl)c1F` [Compound I-1046] are less than 1000 nM and less than 1000 nM. In the same order, the values of `NCCC(SCc1ccccc1)C(=O)Nc1ccc2[nH]ncc2c1` (stereo not drawn) [Compound I-154] are greater than 3000 nM and 1000 to 10000 nM. In the same order, the values of `NCC[C@@H](C(=O)Nc1ccc2[nH]nc(-c3ccccc3)c2c1)c1c(F)ccc(Cl)c1F` [Compound I-1056] are less than 1000 nM and 1000 to 10000 nM. `N#Cc1cccc(Nc2n[nH]c3ccc(NC(=O)[C@H](CCN)c4c(F)ccc(Cl)c4F)cc23)c1` [Compound I-1047]: the Ki on PDK-1 is greater than 3000 nM; at AKT-3 it was less than 1000 nM. As for `NCCC(C(=O)Nc1ccc2[nH]nc(-c3cccc(Cl)c3)c2c1)c1ccc(Cl)c(Cl)c1` (stereo not drawn) [Compound I-253], the inhibitory constant (Ki) at PDK-1 and at AKT-3 was less than 1000 nM in each case. For the compound `CC(=O)c1ccc(-c2n[nH]c3ccc(NC(=O)C(CCN)c4ccccc4)cc23)cc1` (stereo not drawn) [Compound I-250], the results for the inhibition constant Ki on PDK-1 and at AKT-3 were less than 1000 nM and 1000 to 10000 nM, respectively.

In the case of `Cc1cccc(Nc2n[nH]c3ccc(NC(=O)C(CCN)c4ccccc4)cc23)c1` (stereo not drawn) [Compound I-1038], the inhibition constant Ki at PDK-1 was 1000 to 3000 nM; on AKT-3 it was 1000 to 10000 nM. For `N#Cc1cccc(Nc2n[nH]c3ccc(NC(=O)[C@@H](CCN)c4ccccc4)cc23)c1` [Compound I-1055], in that order: 1000 to 3000 nM and 1000 to 10000 nM. In the same order, the values of `N#Cc1ccc(-c2n[nH]c3ccc(NC(=O)C(CCN)c4ccccc4)cc23)cc1` (stereo not drawn) [Compound I-259] are less than 1000 nM and 1000 to 10000 nM. For `NCCC(C(=O)Nc1ccc2[nH]nc(NC(=O)Nc3ccccc3)c2c1)c1ccc(Cl)c(Cl)c1` (stereo not drawn) [Compound I-176], in that order: 1000 to 3000 nM and 1000 to 10000 nM.

In the case of `NCCC(C(=O)Nc1ccc2[nH]nc(C(=O)Nc3ccccc3)c2c1)c1ccccc1` (stereo not drawn) [Compound I-1040], the figures for the inhibitory constant (Ki) on PDK-1 and at AKT-3 were 1000 to 3000 nM and 10000 to 20000 nM, respectively. `COc1cccc(C(CCN)C(=O)Nc2ccc3[nH]nc(Nc4cccc(C(N)=O)c4)c3c2)c1` (stereo not drawn) [Compound I-1030]: the inhibition constant (Ki) at PDK-1 was greater than 3000 nM. `NCCC(C(=O)Nc1ccc2[nH]nc(NC(=O)c3ccc4ccccc4c3)c2c1)c1ccc(Cl)c(Cl)c1` (stereo not drawn) [Compound I-170]: the inhibition constant Ki on PDK-1 is 1000 to 3000 nM; at AKT-3, less than 1000 nM. In the same order, the values of `CC(C)c1cccc(-c2n[nH]c3ccc(NC(=O)C(CCN)c4ccc(Cl)c(Cl)c4)cc23)c1` (stereo not drawn) [Compound I-222] are greater than 3000 nM and less than 1000 nM. In the same order, the values of `NCCC(C(=O)Nc1ccc2[nH]nc(NC(=O)C3CCCCC3)c2c1)c1ccccc1` (stereo not drawn) [Compound I-1050] are greater than 3000 nM and 1000 to 10000 nM. In the same order, the values of `NCC[C@H](C(=O)Nc1ccc2[nH]nc(-c3ccccc3)c2c1)c1c(F)ccc(Cl)c1F` [Compound I-1057] are less than 1000 nM and 10000 to 20000 nM. For `COc1cccc(C(CCN)C(=O)Nc2ccc3[nH]nc(Nc4cccc(C#N)c4)c3c2)c1` (stereo not drawn) [Compound I-1031], at PDK-1, the Ki is greater than 3000 nM. With `NCCC(C(=O)Nc1ccc2[nH]nc(-c3cccc(Cl)c3)c2c1)c1ccccc1` (stereo not drawn) [Compound I-241], the inhibition constant (Ki) at PDK-1 is less than 1000 nM; on AKT-3, 1000 to 10000 nM.

For `NCCC(C(=O)Nc1cc(-c2ccccc2)c2[nH]ncc2c1)c1ccc(Cl)c(Cl)c1` (stereo not drawn) [Compound I-150], the values for the Ki on PDK-1 and at AKT-3 were greater than 3000 nM and 1000 to 10000 nM, respectively.
